Experimental data published in ChEMBL document CHEMBL1201862, “PubChem BioAssay data set” (2004).
Structures can show the parent of a compound that is named as a salt. One block for each compound: values may come before it. Active and inactive are the calls of the source.

Legend:
[1] = molecular target: Transitional endoplasmic reticulum ATPase (Homo sapiens, UniProt P55072); assay: Luminescence dose response biochemical high throughput screening assay for inhibitors of the p97 ATPase: synthesized compounds. [Related pubchem assays: 1481, 1517 ]
Transitional endoplasmic reticulum ATPase (Homo sapiens, UniProt P55072), sequence (P55072 whole entry): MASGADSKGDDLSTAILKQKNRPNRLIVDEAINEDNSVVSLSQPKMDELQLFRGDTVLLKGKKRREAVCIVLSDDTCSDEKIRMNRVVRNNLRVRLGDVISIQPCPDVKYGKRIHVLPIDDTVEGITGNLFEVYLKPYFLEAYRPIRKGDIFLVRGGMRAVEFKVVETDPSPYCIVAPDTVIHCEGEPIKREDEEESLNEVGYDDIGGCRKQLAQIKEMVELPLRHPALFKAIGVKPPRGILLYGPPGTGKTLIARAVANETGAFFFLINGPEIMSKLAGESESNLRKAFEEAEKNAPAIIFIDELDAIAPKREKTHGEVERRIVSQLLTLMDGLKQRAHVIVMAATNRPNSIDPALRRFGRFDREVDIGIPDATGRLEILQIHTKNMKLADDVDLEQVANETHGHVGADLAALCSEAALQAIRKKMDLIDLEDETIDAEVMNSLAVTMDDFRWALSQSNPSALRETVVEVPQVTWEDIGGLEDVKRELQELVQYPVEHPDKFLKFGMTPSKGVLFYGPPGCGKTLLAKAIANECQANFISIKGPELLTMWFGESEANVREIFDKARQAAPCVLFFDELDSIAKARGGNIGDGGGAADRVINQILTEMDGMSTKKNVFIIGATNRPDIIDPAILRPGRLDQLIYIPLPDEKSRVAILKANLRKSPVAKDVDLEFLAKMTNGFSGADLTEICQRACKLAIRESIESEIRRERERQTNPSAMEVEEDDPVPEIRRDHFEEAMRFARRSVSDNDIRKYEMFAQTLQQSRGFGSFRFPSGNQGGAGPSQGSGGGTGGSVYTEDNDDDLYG

[2] = molecular target: Transitional endoplasmic reticulum ATPase (Homo sapiens, UniProt P55072, C522A); assay: Luminescence counterscreen assay for p97 inhibitors: dose response biochemical high throughput screening assay to identify inhibitors of the C522A mutant p97 ATPase: synthesized compounds. [Related pubchem assays: 1481, 1517, 1551 ]
Transitional endoplasmic reticulum ATPase (Homo sapiens, UniProt P55072, C522A), sequence (P55072 2-806 C522A limits assumed): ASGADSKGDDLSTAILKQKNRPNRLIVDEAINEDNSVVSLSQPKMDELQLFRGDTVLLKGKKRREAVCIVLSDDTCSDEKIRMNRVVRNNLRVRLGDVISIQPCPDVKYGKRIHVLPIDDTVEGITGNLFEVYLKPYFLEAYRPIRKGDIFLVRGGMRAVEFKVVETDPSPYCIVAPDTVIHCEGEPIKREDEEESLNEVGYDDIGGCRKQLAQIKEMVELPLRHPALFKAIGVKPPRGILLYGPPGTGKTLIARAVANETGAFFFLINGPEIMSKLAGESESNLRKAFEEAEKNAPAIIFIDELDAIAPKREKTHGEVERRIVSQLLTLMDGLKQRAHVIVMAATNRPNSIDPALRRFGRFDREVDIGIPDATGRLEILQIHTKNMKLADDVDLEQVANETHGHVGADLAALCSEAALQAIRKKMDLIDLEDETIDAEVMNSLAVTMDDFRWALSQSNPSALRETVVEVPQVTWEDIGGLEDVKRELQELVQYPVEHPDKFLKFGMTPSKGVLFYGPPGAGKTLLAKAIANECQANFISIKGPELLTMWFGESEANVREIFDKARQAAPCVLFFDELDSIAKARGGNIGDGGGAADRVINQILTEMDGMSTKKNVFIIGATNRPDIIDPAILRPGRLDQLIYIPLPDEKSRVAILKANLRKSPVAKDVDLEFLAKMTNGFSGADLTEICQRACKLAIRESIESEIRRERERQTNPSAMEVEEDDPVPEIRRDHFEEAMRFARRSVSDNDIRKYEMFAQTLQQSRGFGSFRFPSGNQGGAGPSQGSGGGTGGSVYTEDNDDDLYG

HEK293 [3] = assay: NOD2 signaling inhibitors in MDP-stimulated cells, cell-based, uHTS, luminescence (AID 2001); assay type: functional; details: Homo sapiens
[4] = Trypanosoma cruzi growth suppression in host cells – NIH3T3 host cells, beta-gal luminescence, confirmation (AID 2044); assay type: functional, cell-based;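 note: intracellular parasites grown in NIH/3T3 mouse fibroblasts as host cells; luminescent beta-galactosidase reporter signal from transgenic T. cruzi replicating inside host cells; inhibitors lower the luminescence signal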
[5] = HEK-293T viability loss after treatment – luminescence, T-cell screen hits, cytotoxicity control for TCR NF-kB inhibitor project, dose response (AID 489026); assay type: functional, cell-based;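 note: cells exposed to compound about 14 hours before the viability readout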
[6] = non-specific 3'UTR reporter inhibition in Clone20-Shn3RL – cell-based, Renilla luciferase, cherry-picked, counter-screen for Shn3 inhibitor project, dose response (AID 624133); assay type: functional
HEK293 [7] = assay: cells; assay type: functional, cell-based; details: Homo sapiens
INS1 = assay: INS-1E survival protection against cytokine death – cell-based, luminescence, retest, dose response (AID 449756); assay type: functional; details: Rattus norvegicus;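 note: cell death triggered by IL-1 beta plus TNF-alpha plus IFN-gamma mixture; protective hits raise ATP signal compared with cytokine alone wells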
[8] = loss of viability in HepG2 cells – cell-based, CellTiter-Glo, cherry-picked, cytotoxicity control for Shn3 inhibitor project, dose response (AID 624134); assay type: functional
cells [9] = assay: cells
HEK293 [10] = assay: cells; assay type: functional, cell-based; details: Homo sapiens; remark: listed apart in the source
HEK293 [11] = assay: inhibition of NOD1-driven NF-kB reporter – cell-based, luminescence, uHTS, primary screen (AID 1578); assay type: functional; details: Homo sapiens
[12] = reduction of Shn3 3'UTR-driven luciferase in osteoblasts – cell-based, Clone20 osteoblasts, firefly luciferase, cherry-picked, dose response (AID 624132); assay type: functional;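 note: firefly luciferase luminescence from reporter carrying the Shn3 3'UTR in osteoblasts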
[13] = molecular target: COUP transcription factor 2 (Homo sapiens, UniProt P24468); assay: Luminescence-based cell-based high throughput dose response assay to identify inhibitors of COUP-TFII (NR2F2).; assay type: functional;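 note: HEK293 cells transiently cotransfected with COUP-TFII expression vector and reporter; luciferase reporter luminescence driven by COUP-TFII from the pX2-168 reporter plasmid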
COUP transcription factor 2, sequence (P24468 whole entry): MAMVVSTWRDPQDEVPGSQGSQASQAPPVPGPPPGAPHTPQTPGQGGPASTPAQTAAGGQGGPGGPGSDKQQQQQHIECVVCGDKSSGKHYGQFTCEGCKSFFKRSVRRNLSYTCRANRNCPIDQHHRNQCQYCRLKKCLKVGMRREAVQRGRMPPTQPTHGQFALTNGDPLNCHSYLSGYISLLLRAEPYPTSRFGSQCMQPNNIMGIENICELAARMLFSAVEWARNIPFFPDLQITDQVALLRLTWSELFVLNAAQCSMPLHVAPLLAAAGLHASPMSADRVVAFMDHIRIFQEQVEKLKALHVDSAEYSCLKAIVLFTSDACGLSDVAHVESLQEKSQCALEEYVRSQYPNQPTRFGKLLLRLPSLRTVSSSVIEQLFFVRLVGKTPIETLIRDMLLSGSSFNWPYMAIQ

[14] = NIH3T3 cell viability loss – ATP luminescence, mouse fibroblasts, counter-screen, dose response (AID 2010); assay type: functional, cell-based;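 note: cells exposed to compound for about 90 hours before reading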
[15] = T. cruzi growth inhibition in host cells, dose response, cell-based, plate reader, dry powder, set 2 (AID 652275); assay type: functional
cells [16] = assay type: functional, cell-based; details: INS-1E
[17] = IC50 of insulin release inhibition, rat insulinoma INS-1E line, 5 mM glucose, cell-based (AID 1117331); assay type: functional
[18] = viability of PTEN-deleted HCT116 cells – cell-based, HCT116 PTEN knockout, dose response (AID 1047); assay type: functional;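 note: HCT116 colon tumor cells with PTEN knocked out; cells exposed to compound for 60 hours before readout; potency for loss of cell viability measured by luminescence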
[19] = blockers of HIV-1 ZM109 envelope-driven cell-cell fusion – HeLa effector, CEM target cells, luciferase, cherry-pick, dose response (AID 652058); assay type: functional, cell-based;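 note: luciferase signal from HIV-1 Env mediated cell-cell fusion of effector and target cells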
[20] = off-target signal loss in HeLa-CEM21 co-culture – HeLa F-luc CTL cells, cherry-picked, counter-screen for HIV-1 Env fusion inhibitor project, dose response (AID 652040); assay type: functional, cell-based;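 note: potency for signal decrease marking cytotoxic or nonspecific inhibition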
[21] = viability of HCT116 lacking mutant beta-catenin – cell-based, human colon tumor, dose response (AID 1045); assay type: functional;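 note: HCT116 colon tumor cells with beta catenin knocked out; cells exposed to compound for 60 hours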
[22] = blockers of HIV-1 envelope-mediated cell-cell fusion – cherry-pick, dose response (AID 652057); assay type: functional, cell-based
[23] = Luminescence Cell-Based Dose Retest to Confirm Inhibitors of Cancer Stem Cells. [Related pubchem assays (depositor defined):AID2717, AID2721]; assay type: functional; details: Homo sapiens
[24] = HIV-1 AD8 envelope cell-cell fusion blockers – cherry-pick, dose response (AID 652062); assay type: functional, cell-based;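 note: luciferase signal from cell-cell fusion driven by HIV-1 clade B AD8 Env; potency is for inhibitors of fusion seen as a drop in luminescence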
[25] = viability loss in CEM21 cells – cell-based, CellTiter-Glo luminescence, cherry-picked, cytotoxicity control for viral fusion inhibitor project, dose response (AID 652042); assay type: functional;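 note: potency for signal decrease meaning cytotoxicity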
[26] = molecular target: T1, Ubiquitin-conjugating enzyme E2 N (Homo sapiens, UniProt P61088); assay type: functional;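 note: Dose-response confirmation in a TR-FRET assay detecting UBC13-driven polyubiquitin chain formation, inhibition measured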
T1 sequence (P61088 whole entry): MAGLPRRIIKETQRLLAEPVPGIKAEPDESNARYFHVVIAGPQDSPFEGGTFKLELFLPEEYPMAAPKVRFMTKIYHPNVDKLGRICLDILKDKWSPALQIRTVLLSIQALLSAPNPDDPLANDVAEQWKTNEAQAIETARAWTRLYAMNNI

Bcl-2-like protein 10 = molecular target: T2, Bcl-2-like protein 10 (Homo sapiens, UniProt Q9HD36); assay: Concentration-response of Bcl-B inhibitors by biochemical FP with TR3 (AID 1243); assay type: functional
T2 sequence (Q9HD36 whole entry): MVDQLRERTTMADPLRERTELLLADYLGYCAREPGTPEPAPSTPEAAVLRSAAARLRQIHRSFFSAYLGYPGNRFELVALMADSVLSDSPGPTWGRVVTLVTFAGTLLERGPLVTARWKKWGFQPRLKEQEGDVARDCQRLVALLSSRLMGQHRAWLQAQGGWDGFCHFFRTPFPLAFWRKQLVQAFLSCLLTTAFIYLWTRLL

Protein Wnt-3a = Protein Wnt-3a (Mus musculus, UniProt P27467); assay: SAR analysis of small molecule antagonists of Gli-SUFU in a Wnt3a luminescent reporter assay.; assay type: functional
Protein Wnt-3a, sequence (P27467 whole entry): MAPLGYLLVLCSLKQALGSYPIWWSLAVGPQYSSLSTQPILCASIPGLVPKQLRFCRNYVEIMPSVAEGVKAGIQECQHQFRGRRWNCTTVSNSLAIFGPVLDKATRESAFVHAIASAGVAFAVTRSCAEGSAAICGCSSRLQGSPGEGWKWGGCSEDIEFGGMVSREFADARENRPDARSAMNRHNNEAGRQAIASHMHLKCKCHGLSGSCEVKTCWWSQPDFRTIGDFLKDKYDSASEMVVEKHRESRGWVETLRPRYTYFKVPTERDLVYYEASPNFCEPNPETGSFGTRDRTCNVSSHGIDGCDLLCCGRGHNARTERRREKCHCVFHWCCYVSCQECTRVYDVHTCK

NS3 = NS3 (Hepatitis C virus, UniProt A3EZJ3); assay: PubChem AID 2173; set-up: species or system Hepacivirus hominis
NS3, sequence (A3EZJ3 whole entry): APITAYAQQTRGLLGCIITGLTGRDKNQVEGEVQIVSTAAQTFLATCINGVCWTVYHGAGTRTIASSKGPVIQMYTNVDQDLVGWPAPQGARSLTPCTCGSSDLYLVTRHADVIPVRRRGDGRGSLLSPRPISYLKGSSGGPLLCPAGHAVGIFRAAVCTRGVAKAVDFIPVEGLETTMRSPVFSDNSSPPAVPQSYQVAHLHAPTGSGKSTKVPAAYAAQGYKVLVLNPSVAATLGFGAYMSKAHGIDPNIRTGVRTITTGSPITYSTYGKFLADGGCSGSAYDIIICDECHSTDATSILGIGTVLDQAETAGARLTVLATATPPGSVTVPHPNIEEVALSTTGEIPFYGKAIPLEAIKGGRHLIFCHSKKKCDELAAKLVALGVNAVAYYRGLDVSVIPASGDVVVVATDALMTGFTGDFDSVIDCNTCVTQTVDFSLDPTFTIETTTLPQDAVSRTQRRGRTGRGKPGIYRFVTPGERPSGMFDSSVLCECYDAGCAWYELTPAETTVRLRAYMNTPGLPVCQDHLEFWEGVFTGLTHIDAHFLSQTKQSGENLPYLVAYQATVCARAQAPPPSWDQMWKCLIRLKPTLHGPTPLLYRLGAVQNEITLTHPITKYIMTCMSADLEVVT

Genome polyprotein = Genome polyprotein (dengue virus type 2, UniProt P29990); assay: flavivirus cap methylation enzyme inhibition – biochemical, confirmation dose response, primary screen (AID 588689); assay type: functional
Genome polyprotein, sequence (P29990 2492-3391 limits assumed): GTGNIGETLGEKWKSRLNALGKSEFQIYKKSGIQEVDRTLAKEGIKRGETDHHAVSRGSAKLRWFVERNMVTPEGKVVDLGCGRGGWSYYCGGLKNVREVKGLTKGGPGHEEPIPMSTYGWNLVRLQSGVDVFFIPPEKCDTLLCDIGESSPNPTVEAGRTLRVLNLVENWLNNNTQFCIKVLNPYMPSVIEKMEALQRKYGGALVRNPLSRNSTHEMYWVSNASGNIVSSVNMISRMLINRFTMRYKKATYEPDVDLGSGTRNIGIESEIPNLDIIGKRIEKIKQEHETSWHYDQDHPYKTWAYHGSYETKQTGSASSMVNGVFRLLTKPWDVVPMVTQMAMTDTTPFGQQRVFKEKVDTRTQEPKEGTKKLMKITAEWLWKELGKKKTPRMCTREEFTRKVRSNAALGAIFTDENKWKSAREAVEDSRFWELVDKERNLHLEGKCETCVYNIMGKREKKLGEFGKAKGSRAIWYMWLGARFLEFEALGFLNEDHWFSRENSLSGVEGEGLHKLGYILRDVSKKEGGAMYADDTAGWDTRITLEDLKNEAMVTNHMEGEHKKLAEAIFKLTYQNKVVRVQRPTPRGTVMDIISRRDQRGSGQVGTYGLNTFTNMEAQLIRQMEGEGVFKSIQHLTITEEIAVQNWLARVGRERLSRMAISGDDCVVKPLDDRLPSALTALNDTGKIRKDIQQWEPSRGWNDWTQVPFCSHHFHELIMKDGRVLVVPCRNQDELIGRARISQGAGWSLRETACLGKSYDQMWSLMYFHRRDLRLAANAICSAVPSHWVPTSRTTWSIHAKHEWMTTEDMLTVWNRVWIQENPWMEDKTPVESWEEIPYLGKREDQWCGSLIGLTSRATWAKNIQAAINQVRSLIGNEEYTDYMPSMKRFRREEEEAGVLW

[27] = lung carcinoma cell viability loss – CellTiter-Glo luminescence, dry powder, set 17, dose response (AID 1117284); assay type: functional, cell-based; details: A549

Compound: COc1ccc(C2=Nn3c([n+](C)c4ccccc43)SC2)cc1
- IC50 (HEK293 [3]): 13 µM (inactive)
- EC50 [4]: < 0.1 µM (active)
- IC50 [5]: > 80 µM (inactive)
- AC50 [6]: 3.2 µM (active)
- IC50 (HEK293 [7]): 12.2 µM (active)
- AC50 (INS1): 1.54 µM (active)
- AC50 [8]: > 70 µM (inactive)
- EC50 (cells [9]): 0.087 µM (active)
- IC50 (HEK293 [10]): > 20 µM (inactive)
- EC50 (HEK293 [11]): 11.1 µM (active)
- AC50 [12]: 1.16 µM (active)
- IC50 [13]: 5.66 µM (active)
- EC50 [14]: > 60 µM (not active)

Compound: CN(C)C(=O)c1ccc(-c2ccc([C@H]3[C@H](CO)N4CCCCN(CC5CC5)C[C@@H]34)cc2)cc1
- AC50 [15]: 2.74 µM (active)

Compound: CN(C)CCOC(c1ccc(Cl)cc1)c1ccccn1 (stereo not drawn) [CARBINOXAMINE MALEATE]
- IC50 (cells [16]): > 33.3 µM (inactive)
- IC50 [17]: 21.4 µM (inactive)

Compound: Cc1ccc(Nc2cc(C)nc(NCc3ccccc3)n2)cc1
- EC50 [18]: 7.18 µM (active)
- EC50 [4]: 0.255 µM (active)
- AC50 [19]: 4.51 µM (active)
- AC50 [20]: 4.77 µM (active)
- EC50 [21]: 6.62 µM (active)
- AC50 (INS1): 3.94 µM (active)
- AC50 [22]: 4.04 µM (active)
- AC50 [23]: 6.3 µM (active)
- AC50 [24]: 7.54 µM (active)
- AC50 [25]: 17.2 µM (active)
- IC50 [26]: > 20 µM (inactive)
- EC50 [14]: > 60 µM (inconclusive)

Compound: CCOC(=O)/C(C#N)=C/c1ccc(F)cc1[N+](=O)[O-]
- IC50 [1]: > 50 µM (not active)
- IC50 [2]: > 50 µM (not active)

Compound: COc1cc(N)ccc1-n1c(C)ccc1C
- EC50 (Bcl-2-like protein 10): 32.9 µM (active)

Compound: COc1ccccc1-c1ccc(CN(C)C[C@@H]2Oc3cc(C#C[C@@H](C)O)ccc3S(=O)(=O)N([C@@H](C)CO)C[C@@H]2C)cc1
- AC50 [27]: > 52 µM (inactive)

The remaining lines, values ahead:

- IC50 [1]: > 50 µM (not active)
- IC50 [2]: > 50 µM (not active)
Compound: Cc1cc(-c2csc(Nc3ccc(C#N)cc3)n2)c(C)n1CCc1ccccc1

- IC50 (Protein Wnt-3a): > 21.8 µM (inactive)
Compound: CN(C)c1cc(NC(=O)c2ccccc2)ncn1

- EC50 (Bcl-2-like protein 10): 1.65 µM (active)
Compound: CC1=C(C#N)c2nc(N)c(C#N)c(C)c2/C1=C/c1ccc(-c2ccc(C(=O)O)c(Cl)c2)o1

- IC50 (NS3): 2.64 µM (active)
- IC50 (Genome polyprotein): 64.6 µM (active)
Compound: Cc1cc(N2C(=O)C(O)=C(C(=O)c3ccco3)C2c2cccc(Oc3ccccc3)c2)no1 (stereo not drawn)
